Values of other authors in patent publication US8623825B2, “Edible fat composition for enhancing bone strength” (Enzymotec Ltd., priority 2007, dated 2014).

How the values were obtained:
[1] = test system: bone of post-menopausal women
vertebral bone = conditions: independent of bone mineral density

Row | Compound | Bone mass ([1]; fluoride treatment) | Skeletal fragility ([1]; particularly non-vertebral bones) | Vertebral bone strength (vertebral bone)
1 | F [fluoride] | increased bone mass | increased skeletal fragility | –
2 | O=C(c1ccc(OCCN2CCCCC2)cc1)c1c(-c2ccc(O)cc2)sc2cc(O)ccc12 [raloxifene] | – | – | significantly improved
